Here are results for 13 compounds from patent US9873683B2, “P2X4 receptor antagonist” (NIPPON CHEMIPHAR CO., LTD., priority 2013, dated 2018).

The target of one experiment is human P2X4 receptor (Homo sapiens (Human), UniProt Q99571). The experiment is described as follows: P2X4 receptor antagonist activity (ATP-induced intracellular calcium, Fura-2 AM). The format is cell-based. Conditions: 1321N1 cells stably expressing human P2X4 receptor; test substance 15 minutes before addition of ATP; Fura-2 AM F340/F380; read-out: Inhibitory activity IC50. On the procedure: The ATP receptor (human P2X4) was introduced into the 1321N1 cells, and the cells were used as a stable ATP receptor expression system. The P2X4-expressing 1321N1 cells were seeded on a 96-well plate, cultured under the conditions of 37° C. and 5% CO2 for 24 hours, and used for calcium measurement. […] For the measurement, a microplate reader, Fluostar Optima (BMG Labtech), was used. The light emitted from a xenon lamp was passed through 340 nm and 380 nm filters, respectively, and irradiated on the cells, fluorescences of 510 nm, F340 and F380, emitted from the cells were measured, and change of the ratio F340/F380 was used as an index of change of intracellular calcium level. The measurement was performed by adding ATP to each well at a final concentration of 1 μM, and observing the ATP-induced Ca^2+ response over time.
The 1321N1 cells stably expressing human P2X4 receptor were seeded on a 96-well plate, cultured under the conditions of 37° C. and 5% CO2 for 24 hours, and then used for intracellular calcium measurement. Fura-2 AM, which is a calcium fluorescent indicator, was used for the intracellular calcium measurement. […] The ratio of fluorescence values obtained with excitation lights of 340 nm and 380 nm was used as an index of the change of intracellular calcium level, and the inhibitory activity of the test substance was calculated on the basis of the comparison with the value obtained in the absence of the test substance (control).
On the technique in general: A change in cytosolic calcium serves as a functional read-out for many receptors and channels.

Experiment [1] relates to mouse neuropathic pain model. The experiment is described as follows: Analgesic activity in mouse neuropathic pain model (von Frey filament test). The format is in vivo. Particulars: for pain threshold of diseased limb (von Frey filament test): oral administration of 30 mg/kg, neuropathic pain model mice, versus vehicle administration group; for analgesic activity: oral administration, mouse neuropathic pain model (FIG. 1). On the procedure:
Mouse neuropathic pain model was prepared according to the method of Tozaki-Saitoh H. et al. (Tozaki-Saitoh H., Tsuda M., Miyata H., Ueda K., Kohsaka S. and Inoue K.; P2Y12 Receptors in Spinal Microglia Are Required for Neuropathic Pain after Peripheral Nerve Injury. Neuroscience, 28(19): 4949-4956 (2008)). Under isoflurane anesthesia, back hair of mice was extensively shaved, the shaved parts were wiped with rubbing alcohol, and the mice were fixed in the prone position on a heating pad. The skins were cut and opened along the dorsal median line on the upper and lower sides of the head end of the sacroiliac bone in a length of about 1 cm each, with confirming the head end of the bone with fingers. The left lateral paravertebral muscle was separated in the sacral region, and then the ligament was separated. The sacroiliae rim and the upper part thereof were cut and opened along the pyramid, and the transverse process of the first sacral vertebra (S1) was confirmed. The transverse process of S1 was removed, the fourth lumber nerve (L4) running just under the transverse process was confirmed and cut, and the operative wound was sutured.
The pain threshold (paw withdrawal threshold (g)) was measured by stimulating the soles of mice with each of seven von Frey filaments (Stoelting Co., TOUCH-TEST SENSORY EVALUATOR) that gave different stimulation strengths, and determining presence or absence of withdrawal response. The 50% threshold was calculated according to the up down method with reference to the method of Chaplan et al. (Chaplan S R, Bach F W, Pogrel J W, Chung J M, Yaksh T L: Quantitative assessment of tactile allodynia in the rat paw, J. Neurosci. Method, 53:55-63 (1994)).
For evaluation of efficacy, each of the compounds described in Examples 21 and 42 was orally administered to the neuropathic pain model mice with a sonde for oral administration in mice, and effect thereof on the pain threshold measured in the von Frey filament test was observed.

pIC50: −log10 of the molar value. Where “and” joins values, the source holds several entries; their conditions need not be identical. Identical values can stand only once. Counter-ions that a name gives are not always drawn.

human P2X4 receptor, sequence (Q99571 whole entry): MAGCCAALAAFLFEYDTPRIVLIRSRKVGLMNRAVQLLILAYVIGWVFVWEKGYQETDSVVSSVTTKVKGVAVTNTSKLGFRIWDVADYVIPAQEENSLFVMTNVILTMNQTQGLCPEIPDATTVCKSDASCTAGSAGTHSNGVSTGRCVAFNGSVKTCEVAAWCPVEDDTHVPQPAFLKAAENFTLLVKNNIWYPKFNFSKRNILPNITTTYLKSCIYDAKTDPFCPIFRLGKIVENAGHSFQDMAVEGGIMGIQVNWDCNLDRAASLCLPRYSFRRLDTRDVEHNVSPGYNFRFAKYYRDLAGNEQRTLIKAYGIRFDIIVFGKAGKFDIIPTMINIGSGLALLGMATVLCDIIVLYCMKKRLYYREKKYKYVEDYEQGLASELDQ

The pIC50 is the negative decadic logarithm of the IC50, by convention in mol/L. `COc1cccc(CCc2nccn2-c2ccc(N3C(=O)CC(=O)Nc4c3ccc3ccccc43)cc2)c1.Cl` [Example 42, 5-[4-[2-(3-Methoxyphenethyl)-1H-imidazol-1-yl]phenyl]-1H-naphtho[1,2-b][1,4]diazepine-2,4(3H,5H)-dione hydrochloride]: the pIC50 at human P2X4 receptor was 7.04. Besides, in experiment [1], the “pain threshold of diseased limb (von Frey filament test)” value was “increased the pain threshold of diseased limb” and the analgesic activity result is “superior analgesic activity”. In the same order, the values of `Cl.O=C1CC(=O)N(c2ccc(-n3ccnc3CCc3ccccc3)cc2)c2ccc3ccccc3c2N1` [Example 21, 5-[4-(2-Phenethyl-1H-imidazol-1-yl)phenyl]-1H-naphtho[1,2-b][1,4]diazepine-2,4(3H,5H)-dione hydrochloride] are 7.11, “increased the pain threshold of diseased limb” and “superior analgesic activity”. For `CC1(C)CN(c2ccc(N3C(=O)CC(=O)Nc4c3ccc3ccccc43)cc2)C(CCc2ccccc2)=N1` [Example 74, 5-[4-(4,4-Dimethyl-2-phenethyl-4,5-dihydro 1H-imidazol-1-yl)phenyl]-1H-naphtho[1,2-b][1,4]diazepine-2,4(3H,5H)-dione hydrochloride], the pIC50 on human P2X4 receptor is 5.60. Turning to `O=C1CC(=O)N(c2ccc(-n3nnnc3Cc3ccccc3O)nc2)c2ccc3ccccc3c2N1` [Example 11], the pIC50 on human P2X4 receptor was 7.11. Take `COc1cc(N2C(=O)CC(=O)Nc3c2ccc2ccccc32)ccc1-c1nccn1CCc1ccccc1` [Example 64, 5-[3-Methoxy-4-(1-phenethyl-1H-imidazol-2-yl)-phenyl]-1H-naphtho[1,2-b][1,4]diazepine-2,4(3H,5H)-dione]: at human P2X4 receptor, the pIC50 was 6.28. In the case of `O=C1CC(=O)N(c2ccc(-c3nc[nH]c3-c3ccccc3)cc2)c2ccc3ccccc3c2N1` [Example 72, 5-[4-(5-Phenyl-1H-imidazol-4-yl)phenyl]-1H-naphtho[1,2-b][1,4]diazepine-2,4(3H,5H)-dione hydrochloride], the pIC50 at human P2X4 receptor was 5.47. Same read-out and setting: then `O=C1CC(=O)N(c2ccc(-c3nccn3CCc3ccccc3)cc2)c2ccc3ccccc3c2N1` [Example 22, 5-[4-(1-Phenethyl-1H-imidazol-2-yl)phenyl]-1H-naphtho[1,2-b][1,4]diazepine-2,4(3H,5H)-dione hydrochloride], with 7.04; and `Cc1cccc(C)c1CCc1nccn1-c1ccc(N2C(=O)CC(=O)Nc3c2ccc2ccccc32)cc1` [Example 37, 5-[4-[2-(2,6-Dimethylphenylethyl)-1H-imidazol-1-yl]phenyl]-1H-naphtho[1,2-b][1,4]diazepine-2,4(3H,5H)-dione hydrochloride], with 7.10; and `COc1ccccc1-c1nccn1-c1ccc(N2C(=O)CC(=O)Nc3c2ccc2ccccc32)cc1` [Example 51, 5-[4-[2-(2-Methoxyphenyl)-1H-imidazol-1-yl]phenyl]-1H-naphtho[1,2-b][1,4]diazepine-2,4(3H,5H)-dione], with 5.77. The same measure, in the same setting: for `COc1ccccc1Cc1nnnn1-c1ccc(N2C(=O)CC(=O)Nc3c2ccc2ccccc32)cc1` [Example 1, 5-[4-[5-(2-Methoxybenzyl)-1H-tetrazol-1-yl]phenyl]-1H-naphtho[1,2-b][1,4]diazepine-2,4(3H,5H)-dione] the value was 7.60; for `CC(C)(Cc1nnnn1-c1ccc(N2C(=O)CC(=O)Nc3c2ccc2ccccc32)cc1)c1ccccn1` [Example 69, 5-[4-[5-[2-Methyl-2-(pyridin-2-yl)propyl]-1H-tetrazol-1-yl]phenyl]-1H-naphtho[1,2-b][1,4]diazepine-2,4(3H,5H)-dione hydrochloride], 5.27; for `O=C1CC(=O)N(c2ccc(-n3ccnc3CCc3cccc(O)c3)cc2)c2ccc3ccccc3c2N1` [Example 43, 5-[4-[2-(3-Hydroxyphenethyl)-1H-imidazol-1-yl]phenyl]-1H-naphtho[1,2-b][1,4]diazepine-2,4(3H,5H)-dione hydrochloride], 7.28 and 6.72. For `COc1c(F)cccc1CCc1nccn1-c1ccc(N2C(=O)CC(=O)Nc3c2ccc2ccccc32)cc1` [Example 83, 5-[4-[(2-(3-Fluoro-2-methoxyphenyl)ethyl)-1H-imidazol-1-yl]phenyl]-1H-naphtho[1,2-b][1,4]diazepine-2,4(3H,5H)-dione hydrochloride], on human P2X4 receptor, the pIC50 is 7.06.
